# Measurements reported in US5723319A, “Cultured cell line that inducibly expresses the hepatitis B virus genome, and uses thereof for screening antiviral substances” (Avid Therapeutics, Inc., priority 1995, dated 1998).
# Like-named read-outs stand apart in the source and are kept apart here.
# Legend:
# [1] = system: HBV (Hep AD38 cells); assay: Inhibition of release of HBV DNA into the extracellular environment, Hep AD38 cells (dot blot); type: cell-based, human hepatitis B virus
# Protocol: Samples were analyzed by dot blot hybridization to detect the presence HBV DNA in the cell culture supernatants (Korba and Milman, 1991, supra). Supernatants were mixed with an equal volume of denaturation solution (1M NaOH/10× SSC) and incubated for 20 minutes at room temperature. The denatured supernatant mixture was blotted on a nylon membrane (Amersham, Arlington Heights, Ill.) using a dot blot apparatus (Schleicher and Schuell, Keene, N.H.). Samples were neutralized by washing the membrane with 0.5 ml of 1M Tris, pH 7.2/2M NaCl followed by 0.5 ml of 20× SSC. Filters were then rinsed in 2× SSC, subjected to UV light crosslinking (Stratalinker), and prehybridized in 5× SSC, 5× Denhardt's Reagent, 20 mM NaPO4, pH 6.5, 50% formamide, 1% SDS, and 250 mg/L salmon sperm DNA for 1 hour at 42° C.
# A 2.8 Kb fragment corresponding to the HBV sequences of pCMAYW was generated by PCR amplification, and served as a template for the synthesis of [α-^32 P]dCTP labelled hybridization probes by random priming according to the vendor's specifications (Megaprime DNA Labelling System, Amersham). Blots were hybridized with the radioactively labelled probe for sixteen hours at 42° C. The filters were then washed twice in 2× SSC/0.1% SDS at 25° C. for 20 minutes each and twice in 0.2× SSC/0.1% SDS at 65° C. for 20 minutes each. Radioactivity for individual samples was quantitated with a Fuji MacBAS 1000 Phosphorimager.
# Cells were seeded in 24 well plates at 4×10^5 cells/well and were grown to 100% confluency (approximately 3 days). At this time (day 0), cells were washed 3 times with PBS and 0.5 ml of medium containing various concentrations of known HBV inhibitors (ddC, 3TC and CDG). For each compound, four different concentrations and a negative control were tested, in the presence or in the absence of tetracycline. Typically, the medium was replaced 24 hours prior to collection with samples being collected four, eight, and twelve days after induction. […]
# The samples were evaluated to determine the effective concentration of the inhibitors that inhibited the release of HBV DNA by 50%. […]
# [2] = system: HBV (2.2.15 cells); assay: Inhibition of release of HBV DNA into the extracellular environment, 2.2.15 cells (dot blot); type: cell-based, hepatitis B virus
# Description: The current state of, the art for the detection of HBV in tissue culture is the HepG2 or 2.2.15 cell line assay (Korba & Milman, Antiviral Research 15: 217-228 1991). This assay uses HepG2 cells (a human hepatoblastoma cell line) stably transfected with DNA from a clone containing two tandemly arranged copies of the HBV genome. […] The 2.2.15 cell line produces HBV at levels sufficient for measurement by conventional detection methods (Aoki-Sef et al., J. Infect. Dis. 164: 843-851 1988; Sells et al., Proc. Natl. Acad. Sci. USA 84: 4641-4644 1988).
# Cells were seeded in 24 well plates at 4×10^5 cells/well and were grown to 100% confluency (approximately 3 days). At this time (day 0), cells were washed 3 times with PBS and 0.5 ml of medium containing various concentrations of known HBV inhibitors (ddC, 3TC and CDG). For each compound, four different concentrations and a negative control were tested, in the presence or in the absence of tetracycline. Typically, the medium was replaced 24 hours prior to collection with samples being collected four, eight, and twelve days after induction. Media were clarified by centrifugation and stored at -70° C. for further analysis. The procedure for susceptibility testing in a 96-well format was essentially the same as for the 24 well plate format except that cells were seeded in 96 well plates at 5×10^4 cells/well, 5 concentrations of drug were tested, and the volume of medium used was 100 μl. In addition, samples were removed from the wells for HBV DNA determination either with and without medium changes 24 hours prior to collection.
# The samples were evaluated to determine the effective concentration of the inhibitors that inhibited the release of HBV DNA by 50%. This value is referred to as the EC50 for the compound.
# [3] = system: HBV Dane particles (Hep AD38 cells); assay: Induction of HBV Dane particles, Hep AD38 cells +/- tetracycline; type: cell-based, human hepatitis B virus
# Protocol: (§1) For each cell line, two 60 mm plates were seeded with 3×10^6 cells. When the cells reached full confluency, the medium was changed and tetracycline was removed from the medium of one the plates. […] The medium was adjusted to 10% glycerol (by volume) and incubated one hour at 4° C. Dane particles were pelleted by […] centrifugation and resuspended in PBS. The viral capsid was disrupted with 1% NP-40 (Sigma Chemical Co., St Louis, Mo.) and the capsid proteins were digested with proteinase K (50 μg/ml). The viral DNA was analyzed by dot blot hybridization using a radioactively labeled probe specific for HBV DNA.
# [4] = system: HBV Dane particles (2.2.15 cells); assay: Induction of HBV Dane particles, 2.2.15 cells +/- tetracycline; type: cell-based, hepatitis B virus
# Protocol: as §1
# [5] = system: HBV Dane particles (HepG2 cells); assay: Induction of HBV Dane particles, HepG2 cells +/- tetracycline; type: cell-based, hepatitis B virus
# Protocol: as §1
# [6] = system: HBV DNA intermediates (Hep AD38 cells); assay: Southern blot of HBV DNA replicative intermediates (cccDNA, replicative intermediates, core DNA), Hep AD38 cells; type: cell-based, human hepatitis B virus; conditions: Hep AD38, presence of tetracycline
# Protocol: For each of the Hep AD38, HepG2 and 2.2.15 cell lines, two 60 mm plates were seeded with 3×10^6 cells and allowed to grow as described above. When the cells became confluent, the medium was changed and tetracycline was removed from the medium on one of the plates. After a six day induction period, the medium again was removed and the cells were washed with PBS. Cells were then incubated at 37° C. for 10 minutes with 1 ml lysis buffer (0.5% SDS, 10 mM Tris-HCl, pH 7.5, 10 mM EDTA, 0.15M NaCl). The cell solutions were transferred to 1.5 ml Eppendorf tubes, adjusted to 0.5 M KCl, and incubated on ice for 15 minutes. The lysates were then clarified by high-speed centrifugation for 15 minutes at 4° C., and the supernatants were collected. DNA was isolated from the supernatants by phenol extraction followed by cold ethanol precipitation. Pelleted DNA was resuspended in 40 μl TE buffer.
# For each cell line, two 60 mm plates were seeded with 3×10^6 cells. When the cells reached full confluency, the medium was changed and tetracycline was removed from the medium of one of the plates. After a 7 day induction period, the medium was removed and cells were washed with PBS. Cells were lysed by the addition of 0.6 ml of transfection lysis buffer (50 mM Tris, pH 8.0, 1 mM EDTA, 1% NP40) to each plate. The mixture was pipetted thoroughly to ensure complete cell lysis. […]
structure (smiles),measurement,setting,value
Nc1ccn([C@@H]2CS[C@H](CO)O2)c(=O)n1 [3TC],EC50,"[1]; Hepatitis B virus, HePAD38",20 nM
same,EC50,[2]; Hepatitis B virus,50 nM
Nc1nc2c(ncn2C2CC(O)C(CO)C2)c(=O)[nH]1 (stereo not shown) [CDG],EC50,[1],11 nM
same,EC50,[2],19 nM
Nc1ccn([C@H]2CC[C@@H](CO)O2)c(=O)n1 [ddC],EC50,"[1]; Hepatitis B virus, HePAD38",8000 nM
same,EC50,[2]; Hepatitis B virus,6000 nM
CN(C)C1C(=O)C(C(N)=O)=C(O)C2(O)C(=O)C3=C(O)c4c(O)cccc4C(C)(O)C3CC12 (stereo not shown) [tetracycline],production of HBV Dane particles,"[3]; Hep AD38, 0.3 μg/ml of tetracycline",completely inhibits
same,HBV DNA released (Dane particles),"[3]; Hep AD38, +Tet, Day 7",0 CPM/well
same,HBV DNA released (Dane particles),"[3]; Hep AD38, +Tet., Day 4",0 CPM/well
same,release of HBV DNA into the extracellular environment,"[3]; Hep AD38, grown in the presence of tetracycline",do not release HBV DNA
same,HBV DNA released (Dane particles),"[4]; 2.2.15, +Tet, Day 7",1.8 × 10^4 CPM/well
same,HBV DNA released (Dane particles),"[4]; 2.2.15, +Tet., Day 4",4 × 10^3 CPM/well
same,response to the presence or absence of tetracycline with regard to release of HBV DNA into the medium,"[4]; 2.2.15, presence or absence of tetracycline",no response
same,HBV DNA released (Dane particles),"[5]; HepG2, +Tet, Day 7",0 CPM/well
same,HBV DNA released (Dane particles),"[5]; HepG2, +Tet., Day 4",0 CPM/well
same,HBV DNA intermediates made,[6],not made
